The assay has as its target T1, NaV1.5 channel (native basal late sodium current, INaL) (Cavia porcellus, UniProt H0V4Z8).
T1 construct: gene SCN5A; native channel in isolated guinea pig ventricular myocytes
As to the kind of experiment: whole-cell patch clamp of late Na+ current, single concentration ([…]). Type of assay: cell-based. The settings on record: read-out: % inhibition at 2 mmol/L.

T1 sequence (H0V4Z8 1-2015): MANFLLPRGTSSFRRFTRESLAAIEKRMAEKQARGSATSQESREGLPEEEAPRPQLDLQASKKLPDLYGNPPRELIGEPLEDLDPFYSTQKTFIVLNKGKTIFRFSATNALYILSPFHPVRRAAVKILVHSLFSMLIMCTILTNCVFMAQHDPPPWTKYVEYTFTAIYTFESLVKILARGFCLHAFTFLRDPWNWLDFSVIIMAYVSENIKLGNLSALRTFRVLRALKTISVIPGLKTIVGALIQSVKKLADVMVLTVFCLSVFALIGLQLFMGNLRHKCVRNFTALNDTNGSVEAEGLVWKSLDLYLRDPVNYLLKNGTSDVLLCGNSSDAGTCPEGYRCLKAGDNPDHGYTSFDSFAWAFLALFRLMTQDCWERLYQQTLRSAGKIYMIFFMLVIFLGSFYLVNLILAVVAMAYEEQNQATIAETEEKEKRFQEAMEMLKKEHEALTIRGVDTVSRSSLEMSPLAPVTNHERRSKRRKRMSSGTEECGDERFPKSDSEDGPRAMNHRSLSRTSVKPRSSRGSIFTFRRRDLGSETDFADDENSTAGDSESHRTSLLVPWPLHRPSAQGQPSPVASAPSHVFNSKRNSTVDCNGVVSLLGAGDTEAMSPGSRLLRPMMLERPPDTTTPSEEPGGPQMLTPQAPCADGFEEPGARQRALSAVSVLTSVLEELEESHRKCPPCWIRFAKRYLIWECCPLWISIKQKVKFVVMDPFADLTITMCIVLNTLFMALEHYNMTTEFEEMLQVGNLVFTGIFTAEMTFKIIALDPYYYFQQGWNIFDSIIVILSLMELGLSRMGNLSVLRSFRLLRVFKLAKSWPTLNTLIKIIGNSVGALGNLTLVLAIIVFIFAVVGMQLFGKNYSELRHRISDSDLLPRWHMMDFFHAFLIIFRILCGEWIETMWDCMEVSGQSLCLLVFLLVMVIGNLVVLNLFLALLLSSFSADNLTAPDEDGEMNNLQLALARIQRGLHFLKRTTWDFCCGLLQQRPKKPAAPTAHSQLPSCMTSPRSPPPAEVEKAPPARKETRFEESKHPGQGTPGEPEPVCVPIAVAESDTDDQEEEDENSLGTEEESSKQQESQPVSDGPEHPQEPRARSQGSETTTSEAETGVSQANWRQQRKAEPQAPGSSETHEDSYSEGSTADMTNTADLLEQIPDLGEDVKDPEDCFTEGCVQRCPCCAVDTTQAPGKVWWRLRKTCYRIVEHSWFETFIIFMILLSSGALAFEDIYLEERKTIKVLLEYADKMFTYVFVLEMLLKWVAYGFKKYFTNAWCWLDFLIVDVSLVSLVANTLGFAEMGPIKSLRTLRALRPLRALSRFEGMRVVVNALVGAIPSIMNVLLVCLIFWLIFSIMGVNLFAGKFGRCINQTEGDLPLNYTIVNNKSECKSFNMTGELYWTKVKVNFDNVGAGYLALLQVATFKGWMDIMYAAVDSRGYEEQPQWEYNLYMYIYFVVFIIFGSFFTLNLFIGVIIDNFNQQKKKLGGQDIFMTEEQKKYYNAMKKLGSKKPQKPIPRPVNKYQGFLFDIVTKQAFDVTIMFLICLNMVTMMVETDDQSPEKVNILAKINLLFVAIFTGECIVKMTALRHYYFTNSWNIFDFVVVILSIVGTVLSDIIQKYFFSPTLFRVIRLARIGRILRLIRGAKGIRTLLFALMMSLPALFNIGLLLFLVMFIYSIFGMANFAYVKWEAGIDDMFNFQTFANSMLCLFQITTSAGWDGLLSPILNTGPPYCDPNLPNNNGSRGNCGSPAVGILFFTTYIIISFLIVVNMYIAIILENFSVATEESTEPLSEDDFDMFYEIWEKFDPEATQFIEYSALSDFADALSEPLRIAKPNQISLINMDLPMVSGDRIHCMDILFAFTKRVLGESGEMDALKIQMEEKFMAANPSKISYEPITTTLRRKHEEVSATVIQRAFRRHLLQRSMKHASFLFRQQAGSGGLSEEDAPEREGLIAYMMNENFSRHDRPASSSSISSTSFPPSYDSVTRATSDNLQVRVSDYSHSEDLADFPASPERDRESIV

For `CS(=O)(=O)SCCN` [MTSEA], the inhibition at 2000 µM turned out to be 90 ± 5%.

The values above are taken from article PMC5449569, “Basal late sodium current is a significant contributor to the duration of action potential of guinea pig ventricular myocytes” (Physiological Reports, 2017).
